Assay results taken from ChEMBL document CHEMBL2440076, “New triarylpyrazoles as broad-spectrum anticancer agents: design, synthesis, and biological evaluation” (Eur J Med Chem, 2013).

Key:
Type in all cases: functional
RPMI-8226 = assay: Growth inhibition of human RPMI8226 cells assessed as cell growth at 10^-7 M after 48 hrs by sulforhodamine B assay; settings: RPMI-8226, 48 h, read-out: Activity
T47D = assay: Growth inhibition of human T47D cells assessed as cell growth at 10^-7 M after 48 hrs by sulforhodamine B assay; settings: read-out: Activity
HL-60(TB) [1] = assay: Growth inhibition of human HL-60(TB) cells assessed as cell growth at 10^-4 M after 48 hrs by sulforhodamine B assay; settings: HL-60, 48 h, read-out: Activity
SF-295 = assay: Growth inhibition of human SF295 cells assessed as cell growth at 10^-6 M after 48 hrs by sulforhodamine B assay; settings: SF-295, 48 h, read-out: Activity
DU-145 = assay: Growth inhibition of human DU145 cells assessed as cell growth at 10^-7 M after 48 hrs by sulforhodamine B assay; settings: DU-145, 48 h, read-out: Activity
HL-60(TB) [2] = assay: Growth inhibition of human HL-60(TB) cells assessed as cell growth at 10^-7 M after 48 hrs by sulforhodamine B assay; settings: HL-60, 48 h, read-out: Activity
TK-10 = assay: Growth inhibition of human TK10 cells assessed as cell growth at 10^-8 M after 48 hrs by sulforhodamine B assay; settings: TK-10, 48 h, read-out: Activity
OVCAR-3 [3] = assay: Growth inhibition of human OVCAR3 cells assessed as cell growth at 10^-8 M after 48 hrs by sulforhodamine B assay; settings: OVCAR-3, 48 h, read-out: Activity
LOX IMVI = assay: Growth inhibition of human LOXIMVI cells assessed as cell growth at 10^-6 M after 48 hrs by sulforhodamine B assay; settings: read-out: Activity
SK-OV-3 [4] = assay: Growth inhibition of human SKOV3 cells assessed as cell growth at 10^-8 M after 48 hrs by sulforhodamine B assay; settings: SK-OV-3, 48 h, read-out: Activity
HT-29 = assay: Growth inhibition of human HT-29 cells assessed as cell growth at 10^-7 M after 48 hrs by sulforhodamine B assay; settings: HT-29, 48 h, read-out: Activity
OVCAR-3 [5] = assay: Growth inhibition of human OVCAR3 cells assessed as cell growth at 10^-7 M after 48 hrs by sulforhodamine B assay; settings: OVCAR-3, 48 h, read-out: Activity
HCT-15 = assay: Growth inhibition of human HCT15 cells assessed as cell growth at 10^-7 M after 48 hrs by sulforhodamine B assay; settings: HCT-15, 48 h, read-out: Activity
SW-620 = assay: Growth inhibition of human SW620 cells assessed as cell growth at 10^-6 M after 48 hrs by sulforhodamine B assay; settings: SW-620, 48 h, read-out: Activity
OVCAR-8 = assay: Growth inhibition of human OVCAR8 cells assessed as cell growth at 10^-8 M after 48 hrs by sulforhodamine B assay; settings: OVCAR-8, 48 h, read-out: Activity
NCI-H460 = assay: Growth inhibition of human NCI-H460 cells assessed as cell growth at 10^-6 M after 48 hrs by sulforhodamine B assay; settings: NCI-H460, 48 h, read-out: Activity
MDA-MB-231 [6] = assay: Growth inhibition of human MDA-MB-231 cells assessed as cell growth at 10^-6 M after 48 hrs by sulforhodamine B assay; settings: MDA-MB-231, 48 h, read-out: Activity
[7] = Growth inhibition of human HCC2998 cells assessed as cell growth at 10^-7 M after 48 hrs by sulforhodamine B assay; settings: HCC 2998, 48 h, read-out: Activity
SK-OV-3 [8] = assay: Growth inhibition of human SKOV3 cells assessed as cell growth at 10^-7 M after 48 hrs by sulforhodamine B assay; settings: SK-OV-3, 48 h, read-out: Activity
MDA-MB-231 [9] = assay: Growth inhibition of human MDA-MB-231 cells assessed as cell growth at 10^-4 M after 48 hrs by sulforhodamine B assay; settings: MDA-MB-231, 48 h, read-out: Activity
HOP-92 = assay: Growth inhibition of human HOP92 cells assessed as cell growth at 10^-4 M after 48 hrs by sulforhodamine B assay; settings: HOP-92, 48 h, read-out: Activity
RXF 393 = assay: Growth inhibition of human RXF393 cells assessed as cell growth at 10^-6 M after 48 hrs by sulforhodamine B assay; settings: RXF 393, 48 h, read-out: Activity
UACC-257 = assay: Growth inhibition of human UACC257 cells assessed as cell growth at 10^-8 M after 48 hrs by sulforhodamine B assay; settings: UACC-257, 48 h, read-out: Activity
OVCAR-3 [10] = assay: Growth inhibition of human OVCAR3 cells assessed as cell growth at 10^-4 M after 48 hrs by sulforhodamine B assay; settings: OVCAR-3, 48 h, read-out: Activity
K562 = assay: Growth inhibition of human K562 cells assessed as cell growth at 10^-5 M after 48 hrs by sulforhodamine B assay; settings: K562, 48 h, read-out: Activity
NCI-H23 = assay: Growth inhibition of human NCI-H23 cells assessed as cell growth at 10^-4 M after 48 hrs by sulforhodamine B assay; settings: NCI-H23, 48 h, read-out: Activity
786-0 = assay: Growth inhibition of human 786-0 cells assessed as cell growth at 10^-5 M after 48 hrs by sulforhodamine B assay; settings: 786-0, 48 h, read-out: Activity
UACC-62 = assay: Growth inhibition of human UACC62 cells assessed as cell growth at 10^-4 M after 48 hrs by sulforhodamine B assay; settings: UACC-62, 48 h, read-out: Activity
A498 = assay: Growth inhibition of human A498 cells assessed as cell growth at 10^-5 M after 48 hrs by sulforhodamine B assay; settings: A498, 48 h, read-out: Activity
KM12 = assay: Growth inhibition of human KM12 cells assessed as cell growth at 10^-6 M after 48 hrs by sulforhodamine B assay; settings: KM12, 48 h, read-out: Activity
IGROV-1 = assay: Growth inhibition of human IGROV1 cells assessed as cell growth at 10^-6 M after 48 hrs by sulforhodamine B assay; settings: IGROV-1, 48 h, read-out: Activity
U-251 = assay: Growth inhibition of human U251 cells assessed as cell growth at 10^-5 M after 48 hrs by sulforhodamine B assay; settings: U-251, 48 h, read-out: Activity
NCI-H322M = assay: Growth inhibition of human NCI-H322M cells assessed as cell growth at 10^-4 M after 48 hrs by sulforhodamine B assay; settings: read-out: Activity
M14 = assay: Growth inhibition of human M14 cells assessed as cell growth at 10^-4 M after 48 hrs by sulforhodamine B assay; settings: M14, 48 h, read-out: Activity
MOLT-4 = assay: Growth inhibition of human MOLT4 cells assessed as cell growth at 10^-5 M after 48 hrs by sulforhodamine B assay; settings: MOLT-4, 48 h, read-out: Activity
UO-31 = assay: Growth inhibition of human UO31 cells assessed as cell growth at 10^-5 M after 48 hrs by sulforhodamine B assay; settings: UO-31, 48 h, read-out: Activity
[11] = Growth inhibition of human Hs 578T cells assessed as cell growth at 10^-4 M after 48 hrs by sulforhodamine B assay; settings: read-out: Activity

| Compound | growth at 0.1 µM (RPMI-8226) | growth at 0.1 µM (T47D) | growth at 100 µM (HL-60(TB) [1]) | growth at 1 µM (SF-295) | growth at 0.1 µM (DU-145) | growth at 0.1 µM (HL-60(TB) [2]) | growth at 0.01 µM (TK-10) | growth at 0.01 µM (OVCAR-3 [3]) | growth at 1 µM (LOX IMVI) | growth at 0.01 µM (SK-OV-3 [4]) | growth at 0.1 µM (HT-29) | growth at 0.1 µM (OVCAR-3 [5]) | growth at 0.1 µM (HCT-15) | growth at 1 µM (SW-620) | growth at 0.01 µM (OVCAR-8) | growth at 1 µM (NCI-H460) | growth at 1 µM (MDA-MB-231 [6]) | growth at 0.1 µM [7] | growth at 0.1 µM (SK-OV-3 [8]) | growth at 100 µM (MDA-MB-231 [9]) | further results |
| --- | --- | --- | --- | --- | --- | --- | --- | --- | --- | --- | --- | --- | --- | --- | --- | --- | --- | --- | --- | --- | --- |
| COc1cc(-c2nn(-c3cccc(NC(=O)c4ccccc4)c3)cc2-c2ccncc2)ccc1Cl | 96% | 92% | 16% | 15% | 100% | 100% | 93% | 103% | 36% | 97% | 98% | 101% | 96% | 35% | 98% | 17% | 53% | 100% | 95% | -42% | growth at 100 µM (HOP-92): -15%; growth at 1 µM (RXF 393): 35%; growth at 0.01 µM (UACC-257): 93%; growth at 100 µM (OVCAR-3 [10]): -51%; growth at 10 µM (K562): 10%; growth at 100 µM (NCI-H23): 18%; growth at 10 µM (786-0): 24%; growth at 100 µM (UACC-62): 19%; growth at 10 µM (A498): -19%; growth at 1 µM (KM12): 36%; growth at 1 µM (IGROV-1): 35%; growth at 10 µM (U-251): 17%; growth at 100 µM (NCI-H322M): 34%; growth at 100 µM (M14): -41%; growth at 10 µM (MOLT-4): 18%; growth at 10 µM (UO-31): 18%; growth at 100 µM [11]: 32% |
| COc1cc(-c2nn(-c3cccc(NC(=O)c4ccc(N5CCOCC5)c(C(F)(F)F)c4)c3)cc2-c2ccncc2)ccc1Cl | 88% | 93% | 6% | 4% | 98% | 73% | 99% | 110% | 29% | 103% | 106% | 76% | 65% | 36% | 98% | 16% | 18% | 92% | 80% | -30% | growth at 100 µM (HOP-92): -30%; growth at 1 µM (RXF 393): -16%; growth at 0.01 µM (UACC-257): 95%; growth at 100 µM (OVCAR-3 [10]): -33%; growth at 10 µM (K562): 2%; growth at 100 µM (NCI-H23): -9%; growth at 10 µM (786-0): -14%; growth at 100 µM (UACC-62): -32%; growth at 10 µM (A498): -32%; growth at 1 µM (KM12): 28%; growth at 1 µM (IGROV-1): 33%; growth at 10 µM (U-251): -17%; growth at 100 µM (NCI-H322M): -1%; growth at 100 µM (M14): -30%; growth at 10 µM (MOLT-4): 9%; growth at 10 µM (UO-31): -5%; growth at 100 µM [11]: 14% |
